Patent US20240336613A1, “HETEROARYL COMPOUNDS FOR TREATING HUNTINGTON'S DISEASE” (PTC THERAPEUTICS, INC., priority 2021, published 2024)

tested on: Huntingtin protein (HTT); assay: Endogenous Huntingtin Protein Assay (MSD electrochemiluminescence); assay type: cell-based; settings: Cpd 72 compared with Cpd 7 in WO2020/005873
Protocol: Compounds of Formula (I) were tested using the Meso Scale Discovery (MSD) Assay provided in International Application No. PCT/US2016/066042, filed on Dec. 11, 2016 and claiming priority to United States Provisional Application U.S. 62/265,652 filed on Dec. 10, 2015, the entire contents of which are incorporated herein by reference.
The Endogenous Huntingtin Protein assay used in Example 1 was developed using the ELISA-based MSD electrochemiluminescence assay platform.
Meso Scale Discovery (MSD) 96-well or 384-well plates were coated overnight at 4° C. with MW1 (expanded polyglutamine) or MAB2166 monoclonal antibody (for capture) at a concentration of 1 μg/mL in PBS (30 μL per well). Plates were then washed three times with 300 μL wash buffer (0.05% Tween-20 in PBS) and blocked (100 μL blocking buffer; 5% BSA in PBS) for 4-5 hours at room temperature with rotational shaking and then washed three times with wash buffer.
Samples (25 μL) were transferred to the antibody-coated MSD plate and incubated overnight at 4° C. After removal of the lysates, the plate was washed three times with wash buffer, and 25 μL of #5656S (Cell signaling; rabbit monoclonal) secondary antibody (diluted to 0.25 μg/mL in 0.05% Tween-20 in blocking buffer) was added to each well and incubated with shaking for 1 Hour at room temperature. Following incubation with the secondary antibody, the wells were rinsed with wash buffer after which 25 μL of goat anti-rabbit SULFO TAG secondary detection antibody (required aspect of the MSD system) (diluted to 0.25 μg/mL in 0.05% Tween-20 in blocking buffer) was added to each well and incubated with shaking for 1 hour at room temperature. After rinsing three times with wash buffer, 150 μL of read buffer T with surfactant (MSD) were added to each empty well, and the plate was imaged on a SI 6000 imager (MSD) according to manufacturers' instructions provided for 96- or 384-well plates.

| SMILES | potency comparison, 1H-pyrazole moiety replaced with 1H-1,2,3-triazole moiety |
| --- | --- |
| CC1(C)CC(n2nnc3cc(-c4ccc(-n5ccnn5)cc4O)nnc32)CC(C)(C)N1 [Cpd 72 in WO2020/005873, reference compound] | significant loss in potency |

same assay, conditions: Table 1, Endogenous Huntingtin Protein Assay

| SMILES | IC50 |
| --- | --- |
| Cc1cn(-c2ccc(-c3cc4ccn([C@H]5CC(C)(C)NC(C)(C)[C@H]5F)c4nn3)c(O)c2)nn1 [Cpd 15, 2-{7-[(3S,4S)-3-fluoro-2,2,6,6-tetramethylpiperidin-4-yl]-7H-pyrrolo[2,3-c]pyridazin-3-yl}-5-(4-methyl-1H-1,2,3-triazol-1-yl)phenol] | < 100 nM |
| Cc1cn(-c2ccc(-c3cc4ccn([C@H]5CCNC6(CC6)C5)c4nn3)c(O)c2)nn1 [Cpd 16, 2-{7-[(7S)-4-azaspiro[2.5]octan-7-yl]-7H-pyrrolo[2,3-c]pyridazin-3-yl}-5-(4-methyl-1H-1,2,3-triazol-1-yl)phenol] | < 100 nM |
| Cc1cnnn1-c1ccc(-c2cc3ccn([C@H]4CC(C)(C)NC(C)(C)[C@H]4F)c3nn2)c(O)c1 [Cpd 17, 2-{7-[(3S,4S)-3-fluoro-2,2,6,6-tetramethylpiperidin-4-yl]-7H-pyrrolo[2,3-c]pyridazin-3-yl}-5-(5-methyl-1H-1,2,3-triazol-1-yl)phenol] | 100 to 500 nM |
| CC1(C)C[C@H](n2ccc3cc(-c4ccc(-n5cc(Cl)nn5)cc4O)nnc32)[C@H](F)C(C)(C)N1 [Cpd 19, 5-(4-chloro-1H-1,2,3-triazol-1-yl)-2-{7-[(3S,4S)-3-fluoro-2,2,6,6-tetramethylpiperidin-4-yl]-7H-pyrrolo[2,3-c]pyridazin-3-yl}phenol] | < 100 nM |

same assay, conditions: Table 1, Endogenous Huntingtin Protein Assay; read-out: IC50

| SMILES | IC50 |
| --- | --- |
| CN1CCC(n2ccc3cc(-c4ccc(-n5ccnn5)cc4O)nnc32)CC12CC2 (centres unmarked) [Cpd 7, 2-[7-(4-methyl-4-azaspiro[2.5]octan-7-yl)-7H-pyrrolo[2,3-c]pyridazin-3-yl]-5-(1H-1,2,3-triazol-1-yl)phenol] | < 100 nM |
| CC1(C)C[C@H](n2ccc3cc(-c4ccc(-n5ccnn5)cc4O)nnc32)[C@H](F)C(C)(C)N1 [Cpd 8] | < 100 nM |
| Cc1cc2cc(-c3ccc(-n4ccnn4)cc3O)nnc2n1C1CCNC2(CC2)C1 (centres unmarked) [Cpd 9, 2-[7-(4-azaspiro[2.5]octan-7-yl)-6-methyl-7H-pyrrolo[2,3-c]pyridazin-3-yl]-5-(1H-1,2,3-triazol-1-yl)phenol] | 100 to 500 nM |
| Cc1cc2cc(-c3ccc(-n4ccnn4)cc3O)nnc2n1[C@H]1CC(C)(C)NC(C)(C)[C@H]1F [Cpd 10, 2-{7-[(3S,4S)-3-fluoro-2,2,6,6-tetramethylpiperidin-4-yl]-6-methyl-7H-pyrrolo[2,3-c]pyridazin-3-yl}-5-(1H-1,2,3-triazol-1-yl)phenol] | < 100 nM |
| Oc1cc(-n2ccnn2)ccc1-c1cc2ccn([C@@H]3CCNC4(CC4)C3)c2nn1 [Cpd 11, 2-{7-[(7R)-4-azaspiro[2.5]octan-7-yl]-7H-pyrrolo[2,3-c]pyridazin-3-yl}-5-(1H-1,2,3-triazol-1-yl)phenol] | < 100 nM |
| Oc1cc(-n2ccnn2)ccc1-c1cc2ccn([C@H]3CCNC4(CC4)C3)c2nn1 [Cpd 13, 2-{7-[(7S)-4-azaspiro[2.5]octan-7-yl]-7H-pyrrolo[2,3-c]pyridazin-3-yl}-5-(1H-1,2,3-triazol-1-yl)phenol] | < 100 nM |
| Oc1cc(-n2ccnn2)cnc1-c1cc2ccn([C@H]3CCNC4(CC4)C3)c2nn1 [Cpd 14, 2-{7-[(7S)-4-azaspiro[2.5]octan-7-yl]-7H-pyrrolo[2,3-c]pyridazin-3-yl}-5-(1H-1,2,3-triazol-1-yl)pyridine-3-ol] | < 100 nM |

Results, then the molecule that gave them:

| IC50 | SMILES |
| --- | --- |
| 500 to 1000 nM | Cc1cnnn1-c1ccc(-c2cc3ccn([C@H]4CCNC5(CC5)C4)c3nn2)c(O)c1 [Cpd 18, 2-{7-[(7S)-4-azaspiro[2.5]octan-7-yl]-7H-pyrrolo[2,3-c]pyridazin-3-yl}-5-(5-methyl-1H-1,2,3-triazol-1-yl)phenol] |
| < 100 nM | CC1(C)C[C@H](n2ccc3cc(-c4ccc(-n5ccnn5)cc4O)nnc32)[C@H](F)CN1 [Cpd 22, 2-{7-[(4S,5R)-5-fluoro-2,2-dimethylpiperidin-4-yl]-7H-pyrrolo[2,3-c]pyridazin-3-yl}-5-(1H-1,2,3-triazol-1-yl)phenol] |
| < 100 nM | Oc1cc(-n2ccnn2)ccc1-c1cc2ccn(C3CC4(CC4)NC4(CC4)C3)c2nn1 (centres unmarked) [Cpd 24, 2-[7-(4-azadispiro[2.1.2^5.3^3]decan-9-yl)-7H-pyrrolo[2,3-c]pyridazin-3-yl]-5-(1H-1,2,3-triazol-1-yl)phenol] |
| < 100 nM | CC1(C)C[C@H](n2ccc3cc(-c4cc(F)c(-n5ccnn5)cc4O)nnc32)[C@H](F)C(C)(C)N1 [Cpd 26, 4-fluoro-2-{7-[(3S,4S)-3-fluoro-2,2,6,6-tetramethylpiperidin-4-yl]-7H-pyrrolo[2,3-c]pyridazin-3-yl}-5-(1H-1,2,3-triazol-1-yl)pheno] |
| < 100 nM | CC1(C)C[C@H](n2ccc3cc(-c4c(O)cc(-n5ccnn5)cc4F)nnc32)[C@H](F)C(C)(C)N1 [Cpd 27, 3-fluoro-2-{7-[(3S,4S)-3-fluoro-2,2,6,6-tetramethylpiperidin-4-yl]-7H-pyrrolo[2,3-c]pyridazin-3-yl}-5-(1H-1,2,3-triazol-1-yl)phenol] |

same assay, conditions: Table 2, comparison compounds tested according to the assay of Example 1; read-out: IC50

| IC50 | SMILES |
| --- | --- |
| 6.4 nM | CC1(C)CC(n2nnc3cc(-c4ccc(-c5cn[nH]c5)cc4O)nnc32)CC(C)(C)N1 [Cpd 7 in WO2020/005873, reference compound] |
| 7.1 nM | CC1(C)CC(n2ccc3cc(-c4ccc(-c5cn[nH]c5)cc4O)nnc32)CC(C)(C)N1 [Cpd 26 in WO2020/005873, reference compound] |
| 179 nM | CC1(C)CC(n2nnc3cc(-c4ccc(-n5ccnn5)cc4O)nnc32)CC(C)(C)N1 [Cpd 72 in WO2020/005873, reference compound] |
